This is an account of results in publication PMC8286842, “The structures of E. coli NfsA bound to the antibiotic nitrofurantoin; to 1,4-benzoquinone and to FMN” (Biochemical Journal, 2021).

This assay deals with T1, NfsA (Escherichia coli, UniProt P17117).
T1 construct: untagged, dimer
T1 sequence (P17117 1-240): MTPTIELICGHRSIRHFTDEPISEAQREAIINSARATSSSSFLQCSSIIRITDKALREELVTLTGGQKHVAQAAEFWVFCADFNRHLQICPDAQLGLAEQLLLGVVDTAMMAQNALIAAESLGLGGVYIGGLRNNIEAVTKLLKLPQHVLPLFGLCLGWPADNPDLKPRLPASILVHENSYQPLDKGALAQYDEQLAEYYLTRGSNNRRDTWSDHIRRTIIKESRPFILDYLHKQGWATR
Briefly: X-ray crystal structure at […] Å with a second FMN as ligand; steady-state inhibition kinetics. Type of assay: biochemical.

With `Cc1cc2nc3c(=O)[nH]c(=O)nc-3n(C[C@H](O)[C@H](O)[C@H](O)COP(=O)(O)O)c2cc1C` [FMN], the Ki was around 8 µM.

The term Ki denotes a dissociation constant, usually derived from enzyme kinetics or from competition with a known ligand.
